Data from US20020071842A1, “Soluble CD1 compositions and uses thereof” (priority 2000, published 2002).

Legend:
[1] = tested on: human CD1d-restricted T cell clones; experiment: Flow cytometric staining with lipid treated multimerized CD1d-Fc aggregates; type: cell-based; settings: flow cytometry, human CD1d-Fc/Alexa 488 protein A aggregate, 40:1 lipid to fusion protein, compared with DMSO alone
Experimental: To facilitate binding to CD1 specific T cells for detection by flow cytometry, a highly multimerized form of the CD1d fusion protein was formed using fluorescently labeled protein A molecules. Protein A molecules spontaneously associate in solution at neutral pH with immunoglobulin Fc regions, forming complexes containing four Fc molecules and two protein A molecules (4+2 complexes, reference 2). The human CD1d-Fc fusion protein was incubated with Alexa 488 dye labeled protein A, and the 4+2 complexes purified by size exclusion chromatography on a Pharmacia Superose 6 column using PBS pH 7.2 as a running buffer. The purified 4+2 aggregates were concentrated to 100 μg/ml with ovalbumin as a carrier protein. The CD1d-Fc aggregate was then pre-incubated for 24 to 48 hours at 37° C. with antigenic glycolipids dissolved in DMSO at a 40:1 molar ratio of lipid to fusion protein, or with an equivalent volume of DMSO alone as a negative control. The T cell staining was performed at room temperature or 4° C. for 20 min, at a concentration of 40 μg/ml of the lipid or control treated CD1d-Fc aggregate.
To facilitate binding to CD1 specific T cells for detection by flow cytometry, a highly multimerized form of the CD1d fusion protein is formed using fluorescently labeled protein A molecules. Protein A molecules spontaneously associate in solution at neutral pH with immunoglobulin Fc regions, forming complexes containing four Fc molecules and two protein A molecules (4+2 complexes, Langone, J.J. et al, Molec. and Cell. Biochem, 65(2):159-70 (1985)). The human CD1d-Fc fusion protein was incubated with Alexa 488-dye labeled protein A, and the 4+2 complexes purified by size exclusion chromatography on a Phannacia Superose 6 column using PBS pH 7.2 as a running buffer. The purified 4+2 aggregates are concentrated to 100 μg/ml with ovalbumin as a carrier protein. The CD1d-Fc aggregate is then pre-incubated for 24 to 48 hours at 37° C. with antigenic glycolipids dissolved in DMSO at a 40:1 molar ratio of lipid to fusion protein, or with an equivalent volume of DMSO alone as a negative control. The T cell staining is performed at room temperature or 4° C. for 20 min, at a concentration of 40 μg/ml of the lipid or control treated CD1d-Fc aggregate.
Flow cytometric analysis of a CD1d-restricted T cell clone stained with the multimerized CD1d-Fc fusion protein (abbreviated as “hd(8)-fl”) was performed as follows. Staining with CD1d-Fc treated with lipid antigens dissolved in DMSO was compared with CD1d-Fc treated with DMSO alone as a negative control. The specific lipid antigen used were: aGalCer is α-galactosyl ceramide (KRN7000); aGlcCer is α-glucosyl ceramide; aManCer is α-mannosyl ceramide; bGalCer is β-galactosyl ceramide; Cer is ceramide (acylphytosphingolipid).
Flow cytometric analysis of a series of human T cell clones stained with the multimerized CD1d-Fc fusion protein, treated with α-GalCer or DMSO alone also was performed, including staining of two different CD1d-restricted (“NKT”) T cell clones DN2.B9 and DN1.10B3. Four other T cell clones that are not CD1d-restricted also were stained.

[2] = tested on: α-GalCer reactive NKT cell hybridomas; experiment: Plate-bound mCD1d fusion protein hybridoma stimulation assay, hybridoma panel; type: cell-based, mouse; settings: some of the α-GalCer reactive NKT cell hybridomas
From the text: Our observation that two NKT cell hybridomas, 24.8.A and 24.9.E, differed in their antigen reactivity, raised the possibility that NKT cells may have heterogeneous antigen specificities. To extend our analysis of NKT cells, and to compare antigen recognition by mCD1d-restricted T cells of the diverse TCR population, we tested 9 NKT and 8 diverse TCR mCD1d-restricted hybridomas for recognition of 14 purified and synthetic lipid antigens (see Tables 1 and 2). None of the hybridomas produced detectable IL-2 in response to a negative control protein, and only the 24.8.A hybridoma secreted detectable IL-2 in response to untreated mCD1d fusion protein (Table 2). Eight out of nine NKT cell hybridomas were potently stimulated by α-GalCer treated fusion protein, whereas none of the diverse TCR hybridomas reproducibly recognized this antigen (Table 2). […]
IL-2 secreted in the hybridoma stimulation assays was quantitated in a double antibody sandwich ELISA, by comparison to a standard curve of purified murine IL-2 (Pharmingen, San Diego, Calif.). […] IL-2 was detected by addition of a biotinylated rat anti-mouse IL-2 antibody, followed by addition of a streptavidin-alkaline phophatase conjugate, and a chromogenic substrate. The pg/ml of IL-2 present in the hybridoma supernatants was quantitated by linear regression of the IL-2 standard curve.

Molecule | staining of CD1d-restricted T cell clones by lipid treated CD1d-Fc aggregate [1] | also measured
unglycosylated ceramide | did not stain above background levels | –
CCCCCCCCCCCCCCCCCCCCCCCCCC(=O)N[C@@H](CO[C@H]1O[C@H](CO)[C@H](O)[C@H](O)[C@H]1O)[C@H](O)[C@H](O)CCCCCCCCCCCCCC [α-GalCer, α-galactosylceramide] | – | staining of CD1d-restricted T cell clones by lipid treated CD1d-Fc aggregate ([1]; listed as aGalCer): positive staining
β-galactosylceramide [β-GalCer] | did not stain above background levels | –
phosphatidylinositol [PI] | – | activity relative to synthetic α-GalCer [2]: 10-20%
